Measured values reported in publication PMC11239830, “Synthetic macrolides overcoming MLSBK-resistant pathogens” (Cell Discovery, 2024).
Converted amounts (≈) assume the structure as drawn. Where two headings read alike, the source gives them in different places.

Key:
Assay in all cases: MIC, broth microdilution
[1] = test system: S. pneumoniae; type: cell-based, Streptococcus pneumoniae
Experimental: (§1) MICs were determined by the microdilution method according to the Clinical and Laboratory Standards Institute guidelines. […] Finally, the 96-well plates were incubated at 37 °C for 16–20 h to observe and record the results. […] The assay for MICs was replicated at least three times.

[2] = test system: S. pyogenes; type: cell-based, Streptococcus pyogenes; conditions: S. pyogenes 12-206, c-ermTR
Experimental: as §1

[3] = test system: S. aureus; type: cell-based, Staphylococcus aureus
Experimental: as §1

[4] = test system: H. influenzae; type: cell-based, Haemophilus influenzae
Experimental: as §1

[5] = Streptococcus pneumoniae, ATCC49619, S. pneumoniae ATCC49619, Ery-S, read-out: MIC
[6] = Streptococcus pneumoniae, S. pneumoniae 07P390, c-ermB, read-out: MIC
[7] = Streptococcus pneumoniae, S. pneumoniae PU09, mef, read-out: MIC
[8] = Streptococcus pyogenes, read-out: MIC
[9] = Staphylococcus aureus, S. aureus 15B196, c-ermB, read-out: MIC
[10] = Staphylococcus aureus, S. aureus PU32, i-ermA, read-out: MIC
[11] = Haemophilus influenzae, ATCC49247, H. influenzae ATCC49247, Azi-S, read-out: MIC

MIC ([1]; S. pneumoniae 07P390, c-ermB) [µg/mL]	MIC ([1]; S. pneumoniae ATCC49619, Ery-S) [µg/mL]	MIC ([1]; S. pneumoniae PU09, mef) [µg/mL]	MIC [2] [µg/mL]	MIC ([3]; S. aureus 15B196, c-ermB) [µg/mL]	MIC ([3]; S. aureus PU32, i-ermA) [µg/mL]	MIC ([4]; H. influenzae ATCC49247, Azi-S) [µg/mL]	MIC [1, 5] [µg/mL]	MIC [1, 6] [µg/mL]	MIC [1, 7] [µg/mL]	MIC [2, 8] [µg/mL]	MIC [3, 9] [µg/mL]	MIC [3, 10] [µg/mL]	MIC [4, 11] [µg/mL]	SMILES
256 (≈ 265 µM)	1 (≈ 1.03 µM)	2 (≈ 2.07 µM)	128 (≈ 132 µM)	256 (≈ 265 µM)	32 (≈ 33.1 µM)	32 (≈ 33.1 µM)	–	–	–	–	–	–	–	CC[C@H]1OC(=O)[C@H](C)[C@@H](OC(=O)NCCCCC#Cc2ccc3c(c2)c(=O)c(C(=O)O)cn3C2CC2)[C@H](C)[C@@H](O[C@@H]2O[C@H](C)C[C@H](N(C)C)[C@H]2O)[C@](C)(O)C[C@@H](C)CN(C)[C@H](C)[C@H]2OC(=O)O[C@@]21C [109a]
16 (≈ 15.4 µM)	2 (≈ 1.92 µM)	4 (≈ 3.85 µM)	16 (≈ 15.4 µM)	> 256	64 (≈ 61.5 µM)	> 256	–	–	–	–	–	–	–	CC[C@H]1OC(=O)[C@H](C)[C@@H](OC(=O)NCCCCCCCCCc2ccc3c(c2)c(=O)c(C(N)=O)cn3C2CC2)[C@H](C)[C@@H](O[C@@H]2O[C@H](C)C[C@H](N(C)C)[C@H]2O)[C@](C)(OC)C[C@@H](C)C(=NOC)[C@H](C)[C@H]2OC(=O)O[C@@]21C [63b]
–	–	–	–	–	–	–	≤ 0.008	0.06 (≈ 0.0613 µM)	0.03 (≈ 0.0306 µM)	1 (≈ 1.02 µM)	64 (≈ 65.4 µM)	1 (≈ 1.02 µM)	8 (≈ 8.17 µM)	CC[C@H]1OC(=O)[C@H](C)[C@@H](OC(=O)NCCCCCC#Cc2ccc3c(=O)c(C(=O)O)cn(C4CC4)c3c2)[C@H](C)[C@@H](O[C@@H]2O[C@H](C)C[C@H](N(C)C)[C@H]2O)[C@](C)(OC)C[C@@H](C)C(=O)[C@H](C)[C@H]2NC(=O)O[C@@]21C [87c]
256 (≈ 257 µM)	0.5 (≈ 0.502 µM)	2 (≈ 2.01 µM)	128 (≈ 129 µM)	128 (≈ 129 µM)	32 (≈ 32.2 µM)	16 (≈ 16.1 µM)	–	–	–	–	–	–	–	CC[C@H]1OC(=O)[C@H](C)[C@@H](OC(=O)NCCCCCCC#Cc2ccc3c(c2)c(=O)c(C(=O)O)cn3C2CC2)[C@H](C)[C@@H](O[C@@H]2O[C@H](C)C[C@H](N(C)C)[C@H]2O)[C@](C)(O)C[C@@H](C)CN(C)[C@H](C)[C@H]2OC(=O)O[C@@]21C [111a]
–	–	–	–	–	–	–	≤ 0.008	0.5 (≈ 0.495 µM)	0.06 (≈ 0.0595 µM)	1 (≈ 0.991 µM)	16 (≈ 15.9 µM)	4 (≈ 3.96 µM)	8 (≈ 7.93 µM)	CCC1OC(=O)C(C)C(OC(=O)NCCCCCC#Cc2ccc3c(=O)c(C(=O)O)cn(C4CC4)c3c2)C(C)C(OC2OC(C)CC(N(C)C)C2O)C(C)(OC)CC(C)C(=NOC)C(C)C2OC(=O)OC12C (stereo not drawn) [57c]
–	–	–	–	–	–	–	0.5 (≈ 0.534 µM)	> 256	1 (≈ 1.07 µM)	128 (≈ 137 µM)	> 256	8 (≈ 8.54 µM)	128 (≈ 137 µM)	CC[C@H]1OC(=O)[C@H](C)[C@@H](OC(=O)NCCCCCCC#Cc2ccc3cc(C(=O)O)cnc3c2)[C@H](C)[C@@H](O[C@@H]2O[C@H](C)C[C@H](N(C)C)[C@H]2O)[C@](C)(OC)C[C@@H](C)C(=O)[C@H](C)[C@H]2NC(=O)O[C@@]21C [88j]
–	–	–	–	–	–	–	0.12 (≈ 0.119 µM)	16 (≈ 15.8 µM)	1 (≈ 0.988 µM)	16 (≈ 15.8 µM)	> 256	64 (≈ 63.2 µM)	> 256	CCC1OC(=O)C(C)C(OC(=O)NCCCCCCCc2ccc3c(=O)c(C(N)=O)cn(C4CC4)c3c2)C(C)C(OC2OC(C)CC(N(C)C)C2O)C(C)(OC)CC(C)C(=NOC)C(C)C2OC(=O)OC12C (stereo not drawn) [61d]
–	–	–	–	–	–	–	≤ 0.008	0.5 (≈ 0.493 µM)	≤ 0.008	2 (≈ 1.97 µM)	64 (≈ 63.2 µM)	8 (≈ 7.9 µM)	> 256	CCC1OC(=O)C(C)C(OC(=O)NCCCCCCCc2ccc3c(=O)c(C(=O)O)cn(C4CC4)c3c2)C(C)C(OC2OC(C)CC(N(C)C)C2O)C(C)(OC)CC(C)C(=NOC)C(C)C2OC(=O)OC12C (stereo not drawn) [61c]
–	–	–	–	–	–	–	0.12 (≈ 0.126 µM)	1 (≈ 1.05 µM)	0.5 (≈ 0.523 µM)	1 (≈ 1.05 µM)	128 (≈ 134 µM)	8 (≈ 8.38 µM)	16 (≈ 16.8 µM)	CC[C@H]1OC(=O)[C@H](C)[C@@H](OC(=O)NCCCOCCC#Cc2ccc3c(=O)c(C(=O)O)c[nH]c3c2)[C@H](C)[C@@H](O[C@@H]2O[C@H](C)C[C@H](N(C)C)[C@H]2O)[C@](C)(OC)C[C@@H](C)C(=O)[C@H](C)[C@H]2NC(=O)O[C@@]21C [95i]
